Source: the supplement of paper PMC12420376

Legend:
Gem129 = ex vivo spheroids of an HRD-positive high-grade serous ovarian cancer; assay: cell viability relative to untreated control (ex vivo patient spheroids); higher = less cytotoxic; details: 72 h
Procedure: (§1)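 Ex vivo 3D spheroid cultures from dissociated tumours of HGSOC patients (DET3CT platform) were treated for 72 h with dose matrices of carboplatin combined with birinapant or vorinostat (nM). Live (TMRM) and dead (POPO-1) cells were imaged and viability was expressed as % of untreated control.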

Gem243 = ex vivo spheroids of an HRD-positive high-grade serous ovarian cancer; assay: as above; details: 72 h
Procedure: as §1

O=C(O)C1(C(=O)O)CCC1.[NH2-].[NH2-].[Pt+2] [Carboplatin] + CC[C@H](NC(=O)[C@H](C)NC)C(=O)N1C[C@@H](O)C[C@H]1Cc1c(-c2[nH]c3cc(F)ccc3c2C[C@@H]2C[C@H](O)CN2C(=O)[C@H](CC)NC(=O)[C@H](C)NC)[nH]c2cc(F)ccc12 [Birinapant]
cell viability [%]
Details | partner drug concentration 0 nM | partner drug concentration 0.1 nM | partner drug concentration 1 nM | partner drug concentration 10 nM | partner drug concentration 100 nM | partner drug concentration 1000 nM
Gem129, carboplatin concentration 10 nM | – | 105 | 82.3 | 101 | 87.1 | 76.2
Gem129, carboplatin concentration 100 nM | – | 94.9 | 97.3 | 96 | 89.5 | 96.1
Gem129, carboplatin concentration 1000 nM | – | 96.4 | 100 | 92.5 | 86.2 | 73.2
Gem129, carboplatin concentration 10000 nM | 80.4 | 86.7 | 95.8 | 86.7 | 90.5 | 67.4
Gem129, carboplatin concentration 100000 nM | 57.5 | 57.3 | 31.2 | 29.8 | 27.8 | 19.6
Gem243, carboplatin concentration 10 nM | – | 92.7 | 105 | 80.2 | 52.3 | 13.7
Gem243, carboplatin concentration 100 nM | – | 108 | 105 | 84.7 | 41.3 | 15.9
Gem243, carboplatin concentration 1000 nM | – | 95.4 | 94.8 | 93.9 | 45.3 | 15.2
Gem243, carboplatin concentration 10000 nM | 89.9 | 90.9 | 77.3 | 82.9 | 42.4 | 13.9
Gem243, carboplatin concentration 100000 nM | 23.6 | 28.8 | 24.9 | 14 | 7.4 | 6
